Measurements reported in patent US8404708B2, “Dual NK1/NK3 receptor antagonists” (Hoffmann-La Roche Inc., priority 2004, dated 2013).

How the values were obtained:
[1] = biological target: human NK1 receptor (Homo sapiens, UniProt P25103); experiment: NK1 receptor binding, [3H]substance P displacement, CHO cell membranes; conditions: first value of the cell pKi NK1/NK3; human NK1 receptor, [3H]substance P
[2] = biological target: T1, Recombinant human NK3 (hNK3) receptor (Homo sapiens, UniProt P29371); experiment: NK3 receptor binding, [3H]SR142801 displacement, membrane preparations; conditions: second value of the cell pKi NK1/NK3; hNK3 receptor, [3H]SR142801
T1 construct: expressed in transfected cells
T1 sequence (P29371 1-465): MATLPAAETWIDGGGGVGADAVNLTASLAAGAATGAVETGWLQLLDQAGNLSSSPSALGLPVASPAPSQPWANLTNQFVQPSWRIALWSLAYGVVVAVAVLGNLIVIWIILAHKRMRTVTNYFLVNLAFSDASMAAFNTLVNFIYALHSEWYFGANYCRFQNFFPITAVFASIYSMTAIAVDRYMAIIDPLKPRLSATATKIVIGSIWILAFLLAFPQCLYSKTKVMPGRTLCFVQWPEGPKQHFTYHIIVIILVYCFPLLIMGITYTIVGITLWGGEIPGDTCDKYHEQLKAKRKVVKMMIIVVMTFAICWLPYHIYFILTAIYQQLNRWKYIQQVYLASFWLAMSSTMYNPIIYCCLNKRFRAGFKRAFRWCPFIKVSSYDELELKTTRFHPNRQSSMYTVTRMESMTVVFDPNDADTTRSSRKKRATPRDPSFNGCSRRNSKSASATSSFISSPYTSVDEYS
Summary of the method: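 hNK3 membranes (~2.5 μg/well) incubated 90 min at room temperature in 50 mM Tris-HCl pH 7.4 with 0.1% BSA, 4 mM MnCl2, 1 μM phosphoramidon. Nonspecific binding defined with 10 μM SB222200; bound [3H]SR142801 separated by filtration on PEI-soaked GF/C filters and counted by scintillation.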

human NK1 receptor, sequence (P25103 whole entry): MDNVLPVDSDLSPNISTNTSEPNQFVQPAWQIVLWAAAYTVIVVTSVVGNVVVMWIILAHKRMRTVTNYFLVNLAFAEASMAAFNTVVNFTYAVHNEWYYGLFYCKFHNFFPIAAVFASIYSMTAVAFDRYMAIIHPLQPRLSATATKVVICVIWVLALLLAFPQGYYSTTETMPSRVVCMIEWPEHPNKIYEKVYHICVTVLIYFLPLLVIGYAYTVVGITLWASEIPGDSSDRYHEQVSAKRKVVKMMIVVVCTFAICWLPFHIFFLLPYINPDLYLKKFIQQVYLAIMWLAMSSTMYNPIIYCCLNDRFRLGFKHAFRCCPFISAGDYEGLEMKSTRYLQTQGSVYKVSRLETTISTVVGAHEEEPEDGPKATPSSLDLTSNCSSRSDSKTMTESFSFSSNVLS

Row | Ki [1] [nM] | Ki [2] [nM] | SMILES
1 | 1.82 | 20 | CC(=O)N[C@@H]1CCN(c2cc(-c3ccc(F)cc3C)c(N(C)C(=O)C(C)(C)c3cc(C(F)(F)F)cc(C(F)(F)F)c3)cn2)C1 [Example 100, (R)-N-[6-(3-Acetylamino-pyrrolidin-1-yl)-4-(4-fluoro-2-methyl-phenyl)-pyridin-3-yl]-2-(3,5-bis-trifluoromethyl-phenyl)-N-methyl-isobutyramide]
2 | 1.7 | 9.33 | CC(=O)N(C)[C@@H]1CCN(c2cc(-c3ccc(F)cc3C)c(N(C)C(=O)C(C)(C)c3cc(C(F)(F)F)cc(C(F)(F)F)c3)cn2)C1 [Example 101, (R)-N-[6-[3-(Acetyl-methyl-amino)-pyrrolidin-1-yl]-4-(4-fluoro-2-methyl-phenyl)-pyridin-3-yl]-2-(3,5-bis-trifluoromethyl-phenyl)-N-methyl-isobutyramide]
3 | 1.95 | 13.2 | CCN(C(C)=O)[C@@H]1CCN(c2cc(-c3ccc(F)cc3C)c(N(C)C(=O)C(C)(C)c3cc(C(F)(F)F)cc(C(F)(F)F)c3)cn2)C1 [Example 102, (R)-N-[6-[3-(Acetyl-ethyl-amino)-pyrrolidin-1-yl]-4-(4-fluoro-2-methyl-phenyl)-pyridin-3-yl]-2-(3,5-bis-trifluoromethyl-phenyl)-N-methyl-isobutyramide]
4 | 1.66 | 15.8 | Cc1cc(F)ccc1-c1cc(N2CC[C@H](N)C2)ncc1N(C)C(=O)C(C)(C)c1cc(C(F)(F)F)cc(C(F)(F)F)c1 [Example 103, (S)-N-[6-(3-Amino-pyrrolidin-1-yl)-4-(4-fluoro-2-methyl-phenyl)-pyridin-3-yl]-2-(3,5-bis-trifluoromethyl-phenyl)-N-methyl-isobutyramide]
5 | 1.62 | 6.76 | Cc1cc(F)ccc1-c1cc(N2CC[C@H](NS(C)(=O)=O)C2)ncc1N(C)C(=O)C(C)(C)c1cc(C(F)(F)F)cc(C(F)(F)F)c1 [Example 104, (S)-2-(3,5-Bis-trifluoromethyl-phenyl)-N-[4-(4-fluoro-2-methyl-phenyl)-6-(3-methanesulfonylamino-pyrrolidin-1-yl)-pyridin-3-yl]-N-methyl-isobutyramide]
6 | 1.02 | 5.25 | Cc1cc(F)ccc1-c1cc(N2CC[C@H](N(C)S(C)(=O)=O)C2)ncc1N(C)C(=O)C(C)(C)c1cc(C(F)(F)F)cc(C(F)(F)F)c1 [Example 105, (S)-2-(3,5-Bis-trifluoromethyl-phenyl)-N-{4-(4-fluoro-2-methyl-phenyl)-6-[3-(methanesulfonyl-methyl-amino)-pyrrolidin-1-yl]-pyridin-3-yl}-N-methyl-isobutyramide]
7 | 0.589 | 4.68 | CCN([C@H]1CCN(c2cc(-c3ccc(F)cc3C)c(N(C)C(=O)C(C)(C)c3cc(C(F)(F)F)cc(C(F)(F)F)c3)cn2)C1)S(C)(=O)=O [Example 106]
8 | 2.34 | 11.7 | CC(=O)N(C)[C@H]1CCN(c2cc(-c3ccc(F)cc3C)c(N(C)C(=O)C(C)(C)c3cc(C(F)(F)F)cc(C(F)(F)F)c3)cn2)C1 [Example 107, (S)-N-[6-[3-(Acetyl-methyl-amino)-pyrrolidin-1-yl]-4-(4-fluoro-2-methyl-phenyl)-pyridin-3-yl]-2-(3,5-bis-trifluoromethyl-phenyl)-N-methyl-isobutyramide]
9 | 2.45 | 8.91 | CCN(C(C)=O)[C@H]1CCN(c2cc(-c3ccc(F)cc3C)c(N(C)C(=O)C(C)(C)c3cc(C(F)(F)F)cc(C(F)(F)F)c3)cn2)C1 [Example 108, (S)-N-[6-[3-(Acetyl-ethyl-amino)-pyrrolidin-1-yl]-4-(4-fluoro-2-methyl-phenyl)-pyridin-3-yl]-2-(3,5-bis-trifluoromethyl-phenyl)-N-methyl-isobutyramide]
10 | 2.04 | 13.5 | Cc1cc(F)ccc1-c1cc(N2CC[C@H](O)C2)ncc1N(C)C(=O)C(C)(C)c1cc(C(F)(F)F)cc(C(F)(F)F)c1 [Example 109, (S)-2-(3,5-Bis-trifluoromethyl-phenyl)-N-[4-(4-fluoro-2-methyl-phenyl)-6-(3-hydroxy-pyrrolidin-1-yl)-pyridin-3-yl]-N-methyl-isobutyramide]

Further lines, the compound ahead of its results:

Row | SMILES | Ki [1] [nM] | Ki [2] [nM]
11 | CN(C(=O)C(C)(C)c1cc(C(F)(F)F)cc(C(F)(F)F)c1)c1cnc(N(CCO)CCO)cc1-c1ccc(Cl)cc1Cl [Example 86, N-[6-[Bis-(2-hydroxy-ethyl)-amino]-4-(2,4-dichloro-phenyl)-pyridin-3-yl]-2-(3,5-bis-trifluoromethyl-phenyl)-N-methyl-isobutyramide] | 1.66 | 3.55
12 | CN(C(=O)C(C)(C)c1cc(C(F)(F)F)cc(C(F)(F)F)c1)c1cnc(N(CCO)CCO)cc1-c1ccc(Cl)c(Cl)c1 [Example 87, N-[6-[Bis-(2-hydroxy-ethyl)-amino]-4-(3,4-dichloro-phenyl)-pyridin-3-yl]-2-(3,5-bis-trifluoromethyl-phenyl)-N-methyl-isobutyramide] | 1.58 | 9.55
13 | CN(C(=O)C(C)(C)c1cc(C(F)(F)F)cc(C(F)(F)F)c1)c1cnc(N(CCO)CCO)cc1-c1ccc(F)cc1 [Example 88, N-[6-[Bis-(2-hydroxy-ethyl)-amino]-4-(4-fluoro-phenyl)-pyridin-3-yl]-2-(3,5-bis-trifluoromethyl-phenyl)-N-methyl-isobutyramide] | 1.35 | 9.33
14 | CN(C(=O)C(C)(C)c1cc(C(F)(F)F)cc(C(F)(F)F)c1)c1cnc(NCCS(C)(=O)=O)cc1-c1ccccc1Cl [Example 89, 2-(3,5-Bis-trifluoromethyl-phenyl)-N-[4-(2-chloro-phenyl)-6-(2-methanesulfonyl-ethylamino)-pyridin-3-yl]-N-methyl-isobutyramide] | 0.49 | 3.24
15 | CC(=O)NCCNc1cc(-c2ccccc2Cl)c(N(C)C(=O)C(C)(C)c2cc(C(F)(F)F)cc(C(F)(F)F)c2)cn1 [Example 90, N-[6-(2-Acetylamino-ethylamino)-4-(2-chloro-phenyl)-pyridin-3-yl]-2-(3,5-bis-trifluoromethyl-phenyl)-N-methyl-isobutyramide] | 1.78 | 6.03
16 | CN(C(=O)C(C)(C)c1cc(C(F)(F)F)cc(C(F)(F)F)c1)c1cnc(N[C@H]2CC[C@H](O)CC2)cc1-c1ccc(Cl)cc1Cl [Example 91, trans-2-(3,5-Bis-trifluoromethyl-phenyl)-N-[4-(2,4-dichloro-phenyl)-6-(4-hydroxy-cyclohexylamino)-pyridin-3-yl]-N-methyl-isobutyramide] | 2.45 | 5.62
17 | Cc1cc(F)ccc1-c1cc(N[C@H]2CC[C@H](O)CC2)ncc1N(C)C(=O)C(C)(C)c1cc(C(F)(F)F)cc(C(F)(F)F)c1 [Example 92, trans-2-(3,5-Bis-trifluoromethyl-phenyl)-N-[4-(4-fluoro-2-methyl-phenyl)-6-(4-hydroxy-cyclohexylamino)-pyridin-3-yl]-N-methyl-isobutyramide] | 1.02 | 21.4
18 | Cc1cc(F)ccc1-c1cc(N2CCC[C@@H]2CO)ncc1N(C)C(=O)C(C)(C)c1cc(C(F)(F)F)cc(C(F)(F)F)c1 [Example 93, (R)-2-(3,5-Bis-trifluoromethyl-phenyl)-N-[4-(4-fluoro-2-methyl-phenyl)-6-(2-hydroxymethyl-pyrrolidin-1-yl)-pyridin-3-yl]-N-methyl-isobutyramide] | 1.12 | 7.41
19 | CN(C(=O)C(C)(C)c1cc(C(F)(F)F)cc(C(F)(F)F)c1)c1cnc(N2CCC[C@@H]2CO)cc1-c1ccc(Cl)cc1Cl [Example 94, (R)-2-(3,5-Bis-trifluoromethyl-phenyl)-N-[4-(2,4-dichloro-phenyl)-6-(2-hydroxymethyl-pyrrolidin-1-yl)-pyridin-3-yl]-N-methyl-isobutyramide] | 4.27 | 14.8
20 | CN(C(=O)C(C)(C)c1cc(C(F)(F)F)cc(C(F)(F)F)c1)c1cnc(N2CCC[C@@H]2CO)cc1-c1ccc(Cl)c(Cl)c1 [Example 95, (R)-2-(3,5-Bis-trifluoromethyl-phenyl)-N-[4-(3,4-dichloro-phenyl)-6-(2-hydroxymethyl-pyrrolidin-1-yl)-pyridin-3-yl]-N-methyl-isobutyramide] | 3.8 | 9.33
21 | CN(C(=O)C(C)(C)c1cc(C(F)(F)F)cc(C(F)(F)F)c1)c1cnc(N2CC(O)C2)cc1-c1ccccc1Cl [Example 98, 2-(3,5-Bis-trifluoromethyl-phenyl)-N-[4-(2-chloro-phenyl)-6-(3-hydroxy-azetidin-1-yl)-pyridin-3-yl]-N-methyl-isobutyramide] | 0.692 | 3.47
22 | CC(=O)N[C@H]1CCN(c2cc(-c3ccc(F)cc3C)c(N(C)C(=O)C(C)(C)c3cc(C(F)(F)F)cc(C(F)(F)F)c3)cn2)C1 [Example 99, (S)-N-[6-(3-Acetylamino-pyrrolidin-1-yl)-4-(4-fluoro-2-methyl-phenyl)-pyridin-3-yl]-2-(3,5-bis-trifluoromethyl-phenyl)-N-methyl-isobutyramide] | 0.813 | 55
